This is an account of results in paper PMC7048748, “Anxiolytic Drug FGIN-1-27 Ameliorates Autoimmunity by Metabolic Reprogramming of Pathogenic Th17 Cells” (Scientific Reports, 2020).

Assay [1] has as its system Th17 cells. In words: Transcript levels by qPCR in Th17 cells. It counts as cell-based, mouse. On the procedure:
Figure 1 FGIN-1-27 Inhibits Th17 Differentiation. Naïve CD4 T cells from spleens and lymph nodes of C57BL/6 mice were differentiated under Th17 polarization conditions and were treated with DMSO (control) or FGIN-1-27. (a) Dose response plot showing effect of FGIN-1-27 on intracellular IL-17 and viability on day 4 post activation quantified by flow cytometry. Data is normalized against DMSO (100%). […] (b) Dot plots showing DMSO or FGIN-1-27 treated cells stained for surface CD4, CD44, intracellular IL-17 and intranuclear RORγt. (c) Transcript levels for the indicated genes after 24 hours of treatment with DMSO or FGIN-1-27 quantified by qPCR. Data was normalized to a housekeeping gene, β-actin. Data are representative of at least 3 independent experiments and the error bars indicate standard deviation.
Figure 5 FGIN-1-27 induces amino acid starvation response (AAR). (a) MA-plot showing shrunken log2 fold-changes of detected genes between the DMSO and FGIN-1-27 RNA-seq samples, ranked by average normalized count. Red dots indicate differentially expressed genes at adjusted p-value <0.05. (b) Transcript levels for the indicated genes after 24 hours of treatment with DMSO or FGIN-1-27 quantified by qPCR. The error bars represent SD. (c) Western blot analysis for phosphorylated eIF2α and ATF4 24 hours after treatment with DMSO or FGIN-1-27 (5 and 10 µM). Data are representative of 3 independent experiments. (d) Amino acids in Th17 cells measured 72 hours after treatment with FGIN-1-27. The error bars represent SD. (e) ROS was measured using cell permeant reagent 2′,7′ –dichlorofluorescin diacetate (DCFDA) at 24 hours following treatment with FGIN-1-27. Filled grey histogram-DMSO, dotted line-FGIN-1-27 (10 µM) and dashed line indicates FGIN-1-27 (5 µM). […]
Total RNA extractions were performed with the RNAeasy kit (Qiagen) followed by cDNA synthesis using High capacity cDNA Reverse Transcription kit (Applied Biosystems). Quantitative PCR was performed on a ViiA 7 (Applied Biosystems) using SYBR Fast qPCR master mix (Kapa Biosystems). […]
(Real-time PCR tracks product formation cycle by cycle.)

Assay [2] has as its system experimental autoimmune encephalomyelitis (EAE). Put plainly: Passive EAE by adoptive transfer of treated 2D2 Th17 cells. It counts as in vivo, mouse. On the procedure:
We interrogated whether FGIN-1-27 can influence Th17 dependent pathology in vivo by using a mouse model of passive EAE in which Th17 cells are responsible for driving immuno-pathogenesis. To this end, we sorted naïve CD4^+ T cells (CD4^+Vβ11^+CD62L^hi) from spleen and lymph nodes of “2D2” T cell receptor (TCR) transgenic mice that specifically recognize myelin oligodendrocyte glycoprotein (MOG) peptide and activated them under Th17 polarizing conditions. The cultures were treated with DMSO or FGIN-1-27 during the Th17 differentiation process and cells were reactivated on day 5 for an additional 48 hours and equal numbers of 2D2 Th17 polarized cells treated either with DMSO or FGIN-1-27 were adoptively transferred to recipient mice.
(a) Immunophenotyping of 2D2 TCR transgenic CD4^+ T cells for intracellular IL-17 and IFNγ before adoptive transfer. Cultures were treated with DMSO or FGIN-1-27 during Th17 polarization process. (b) Mean clinical scores of mice following the adoptive transfer of 5 × 10^6 2D2 Th17 cells treated with DMSO or 5 × 10^6 2D2 Th17 cells treated with FGIN-1-27. […] The error bars represent SEM. (c) Mean clinical scores of T cell-deficient (Tcrb^−/−) mice following adoptive transfer of 5 × 10^6 2D2 Th17 cells treated with DMSO or 5 × 10^6 2D2 Th17 cells treated with FGIN-1-27. […] The error bars represent SEM. (d) Enumeration of total mononuclear or 2D2 CD4^+ T cells (CD4^+Vβ11^+) in spleens of mice receiving either DMSO or FGIN-1-27 treated 2D2 T cells. Cells were analyzed at the peak of EAE disease (day 15 post-transfer) by flow cytometry. The error bars represent SD. (e) Enumeration of total CNS mononuclear or CNS-infiltrating 2D2 CD4^+ T cells (CD4^+Vβ11^+) in mice receiving either DMSO or FGIN-1-27 treated 2D2 T cells. Cells were analyzed at the peak of EAE disease (day 15 post-transfer) by flow cytometry. The errors bars represent SD. (f) Intracellular cytokine staining of 2D2 CD4^+ T cells (day 15 post-transfer) for IL-17, IFNγ and GM-CSF from the CNS of mice that received either DMSO or FGIN-1-27 treated cells. The error bars represent SD.
Naïve CD4^+ T cells (CD4^+Vβ11^+CD62L^hi) were sorted from the spleens and lymph nodes of 2D2 TCR transgenic mice and polarized towards Th17 lineage in the presence of irradiated splenocytes (5:1 ratio) and 2.5 μg/ml anti-CD3 (145-2C11, BioXCell), 20 μg/ml anti-IL-4 (11B11, BioXCell), 20 μg/ml anti-IFNγ (XMG1.2, BioXCell), 30 ng/ml mIL-6 and 3 ng/ml hTGF-β1 (Miltenyi Biotec). The following day, cells were treated with either DMSO or FGIN-1-27 (10 μM) and IL-23 (10 ng/ml; R&D Systems) was added after 60 h of activation. On day 5 of culture, cells were reactivated on plates precoated with 2 μg/ml of anti-CD3 and anti-CD28 (PV1, BioXCell) for 48 h, and 5 million cells were adoptively transferred to recipient mice to induce passive-transfer EAE. Classical EAE symptoms were scored daily according to standard criteria: 0, asymptomatic; 1, flaccid tail; 2, hind-limb weakness and impaired righting ability; 3, hind-limb paralysis; 4, front- and hind-limb paralysis; 5, moribund or death.

For assay [3] the test system is unchanged. Put plainly: Active EAE induced with MOG peptide 35-55. It counts as in vivo, mouse. The note with it: 30 mg/kg intraperitoneal twice daily for 7 days.

Take `CCCCCCN(CCCCCC)C(=O)Cc1c(-c2ccc(F)cc2)[nH]c2ccccc12` [FGIN-1-27, N, N-di-n-hexyl 2-(4-fluorophenyl) indole-3-acetamide]: in assay [1] (24 hours), the “ATF4 target genes Asns and Gpt2” value is listed as “induced”. Also, the “expression of RORγt target genes (Il17a, Il17f, Il23r, Ltb4r1, Ccr6) and Stat3” value in assay [1] (24 hours of treatment, p < 0.0001) is “significantly downregulated”. For the same compound, the CD5L transcript entry in assay [1] (72 hours post treatment) was “substantial up-regulation”. The “onset and severity of EAE” value in assay [2] (T cell deficient (Tcrb−/−) recipient mice, p = 0.0067) was “delayed onset and reduced severity of EAE”. In assay [2] (day 15 post-transfer), the “2D2 CD4+ T cells recovered from the CNS” value was “fewer”; the “2D2 CD4+ T cells recovered from the spleens” value is listed as “higher number”; the “IFNγ and GM-CSF production of CNS 2D2 CD4+ T cells” value was “intact”; the “percentage and absolute numbers of IL-17 producing 2D2 CD4+ T cells from the CNS” value is listed as “significant reduction”. Further, the “IL-17 producing 2D2 T cells before adoptive transfer” value in assay [2] (pre-transfer, 10 μM during Th17 polarization) is reported as “reduced percentage of IL-17 producing cells”. For the same compound, in assay [2] (recipient mice, 5 × 10^6 treated 2D2 Th17 cells, p < 0.02), the “disease symptoms (mean clinical scores)” value is listed as “much milder disease symptoms”. For the same compound, the “onset or severity of the symptoms” value in assay [3] was “did not affect onset or severity”.
